Assay results reported in patent publication US20240417395A1, “DUAL ANTAGONIST AND USE THEREOF” (NICOYA THERAPEUTICS (SHANGHAI) CO., LTD, priority 2021, published 2024).
In brackets after ≈: the same amount, converted by molar mass. Like-named read-outs stand apart in the source and are kept apart here.

Tests used:
CYP2D6 = CYP2D6 (Homo sapiens (Human), UniProt P10635); assay: Inhibition of cytochrome P450 isozyme CYP2D6; format: in vitro ADME; conditions: for IC50: recombinant enzyme
Protocol: (§1) A total of six specific probe substrates of six isozymes of CYPs, i.e., α-Naphthoflavone (CYP1A2), Sulphaphenazole (CYP2C9), Ticlopidine (CYP2C19), Quinidine (CYP2D6), Ketoconazole (CYP3A4), and Montelukast (CYP2C8) were co-incubated with recombinant hepatic drug enzymes CYP1A2, CYP2C9, CYP2C19, CYP2D6, CYP3A4, and CYP2C8 and test compounds, respectively. Nicotinamide adenine dinucleotide phosphate (NADP+), D-glucose-6-phosphate (G6P) and glucose-6-phosphate dehydrogenase (G6DHP) were added to start the reaction. At the end of the reaction, the corresponding half maximal inhibitory concentrations (IC50) were calculated by the fluorescence detection method (Ex490 nm/Em520 nm).

[1] = Experiment on water solubility (HPLC-UV); format: physicochemical
Protocol: The detection was carried out in accordance with the high performance liquid chromatography (General Principles 0512 of Chinese Pharmacopoeia Volume IV (2020)):
Chromatographic conditions for the HPLC-UV method: mobile phase: 0.02 M KH2PO4 aqueous solution-acetonitrile (90:10), gradient elution; chromatographic column: C18; detection wavelength: 210 nm. The water solubility was calculated based on the peak area by the external standard method.

AT1 = AT1 (Homo sapiens (Human), UniProt P30556); assay: Calcium flux assay on AT1 cell line; format: cell-based; conditions: AT1/HEK293, calcium flux, angiotensin II agonist
Protocol: (§2) Test materials: a) cell line: AT1/HEK293; b) vehicles: F12, Invitrogen (Cat #11765-047); FBS, Corning (Cat #35-076-CV); Geneticin, Invitrogen (Cat #10131); c) reagent: Fluo-4 Direct, (Invitrogen, Cat #F10471); d) instruments: 384 well Poly-D-Lysine protein coating plate, Greiner #781946; Vi-cell XR Cell Viability Analyzer, Beckman Coulter; Incubator, Thermo.
For the agonist (angiotensin II) master plate, the agonist solution was diluted from 1 mM to 200 μM with the test buffer solution. […] Afterwards, 900 nL of each compound solution was transferred to the master plate and 30 μL of the test buffer solution was added. • a) The cell plate was removed from the incubator, and 20 μL of 2X Fluo-4 Direct was added by a pipette to a 384-well cell plate. • b) The cell plate was incubated at 37° C. for 50 min in the environment of 5% CO2, and then incubated at room temperature for 10 min. • c) The cell plate was removed from the incubator and placed in FLIPR. The compound plates and the tip box were placed in FLIPR. • d) Regarding the EC80 plate: • 1) Operations were conducted on […]. • 2) 10 μL of compound solution was transferred from the EC80 master plate to the cell plate. • 3) Fluorescence signals were read. • 4) The read signals were counted, and the EC80 value of each cell line was calculated using FLIPR. • 5) For the concentration of the compound plate, a solution having a concentration 6 times that of the reference agonist EC80 was formulated. • e) Regarding the compound plate: • 1) Operations were conducted on […]. • 2) 10 μL of compound was transferred to the cell plate. • 3) Fluorescence signals were read. • 4) 10 μL of solution having a concentration 6 times that of the reference agonist EC80 was transferred. • 5) Fluorescence signals were read. • f) Data analysis by Prism

ETa = ETa (Homo sapiens (Human), UniProt P25101); assay: Calcium flux assay on ETa cell line; format: cell-based; conditions: ETa/HEK293, calcium flux, endothelin-1 agonist
Protocol: as §2, with “ETa/HEK293;” for “AT1/HEK293;”, “DMEM,” for “F12,”, “#11960);” for “#11765-047); FBS, Corning (Cat #35-076-CV);”
For the employed agonist endothelin factor (endothelin-1, ET-1) master plate: the agonist was diluted from 50 μM to 15 μM with the test buffer solution.
For antagonist (BQ123, Am J Physiol. 1994 April; 266 (4 Pt 2): H1327-31.) plates and the compound plates: the antagonist and the tested compounds were diluted with DMSO at a gradient ratio of 1:4 to obtain 10 concentration points. Afterwards, 900 nL of each compound solution was transferred to the master plate and 30 μL of the test buffer solution was added. • a) The cell line was removed from the incubator, and 20 μL of 2X Fluo-4 Direct™ buffer solution was added gently by a pipette to a 384-well cell culture plate. • b) The cell plate was incubated at 37° C. for 50 min in the environment of 5% CO2, and then incubated at room temperature for 10 min. • c) The cell plate was removed from the incubator and placed in FLIPR. The compound plates and the tip box were placed in FLIPR. • d) Regarding the EC80 plate: • 1) Operations were conducted on […]. • 2) 10 μL of compound solution was transferred from the EC80 master plate to the cell plate. • 3) Fluorescence signals were read. • 4) The read signals were counted, and the EC80 value of each cell line was calculated using FLIPR. • 5) For the concentration of the compound plate, a solution having a concentration 6 times that of the reference agonist EC80 was formulated. • e) Regarding the compound plate: • 1) Operations were conducted on […]. • 2) 10 μL of compound was transferred to the cell plate. • 3) Fluorescence signals were read. • 4) 10 μL of solution having a concentration 6 times that of the reference agonist EC80 was transferred to the cell plate. • 5) Fluorescence signals were read. • f) Data analysis by Prism

CYP2C9 = CYP2C9 (Homo sapiens (Human), UniProt P11712); assay: Inhibition of cytochrome P450 isozyme CYP2C9; format: in vitro ADME; conditions: for IC50: recombinant enzyme
Protocol: as §1

CYP2C8 = CYP2C8 (Homo sapiens (Human), UniProt P10632); assay: Inhibition of cytochrome P450 isozyme CYP2C8; format: in vitro ADME; conditions: for IC50: recombinant enzyme
Protocol: as §1

CYP1A2 = CYP1A2 (Homo sapiens (Human), UniProt P05177); assay: Inhibition of cytochrome P450 isozyme CYP1A2; format: in vitro ADME; conditions: for IC50: recombinant enzyme
Protocol: as §1

CYP3A4 = CYP3A4 (Homo sapiens (Human), UniProt P08684); assay: Inhibition of cytochrome P450 isozyme CYP3A4; format: in vitro ADME; conditions: for IC50: recombinant enzyme
Protocol: as §1

CYP2C19 = CYP2C19 (Homo sapiens (Human), UniProt P33261); assay: Inhibition of cytochrome P450 isozyme CYP2C19; format: in vitro ADME; conditions: for IC50: recombinant enzyme
Protocol: as §1

[2] = read-out: IC50 activity against AT1 (class)
[3] = read-out: IC50 activity against ETa (class)
[4] = fluorescence detection, read-out: IC50 CYP2D6
[5] = fluorescence detection, read-out: IC50 CYP2C9
[6] = fluorescence detection, read-out: IC50 CYP2C8
[7] = fluorescence detection, read-out: IC50 CYP1A2
[8] = fluorescence detection, read-out: IC50 CYP3A4
[9] = fluorescence detection, read-out: IC50 CYP2C19

Sequence of CYP1A2 (P05177 whole entry): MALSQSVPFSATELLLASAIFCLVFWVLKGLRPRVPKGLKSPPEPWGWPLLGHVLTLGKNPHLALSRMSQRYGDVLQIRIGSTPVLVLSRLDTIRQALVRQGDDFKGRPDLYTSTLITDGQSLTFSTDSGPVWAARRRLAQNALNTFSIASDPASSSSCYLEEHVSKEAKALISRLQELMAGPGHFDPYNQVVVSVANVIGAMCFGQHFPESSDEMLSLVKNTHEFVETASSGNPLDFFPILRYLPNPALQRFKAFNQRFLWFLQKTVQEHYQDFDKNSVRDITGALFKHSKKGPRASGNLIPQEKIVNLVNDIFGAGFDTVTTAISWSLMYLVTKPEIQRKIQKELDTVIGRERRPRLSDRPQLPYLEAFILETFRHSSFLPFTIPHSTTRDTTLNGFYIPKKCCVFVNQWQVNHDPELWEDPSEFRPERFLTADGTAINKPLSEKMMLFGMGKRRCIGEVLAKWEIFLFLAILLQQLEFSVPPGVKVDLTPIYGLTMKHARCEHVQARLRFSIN
Sequence of ETa (P25101 21-427): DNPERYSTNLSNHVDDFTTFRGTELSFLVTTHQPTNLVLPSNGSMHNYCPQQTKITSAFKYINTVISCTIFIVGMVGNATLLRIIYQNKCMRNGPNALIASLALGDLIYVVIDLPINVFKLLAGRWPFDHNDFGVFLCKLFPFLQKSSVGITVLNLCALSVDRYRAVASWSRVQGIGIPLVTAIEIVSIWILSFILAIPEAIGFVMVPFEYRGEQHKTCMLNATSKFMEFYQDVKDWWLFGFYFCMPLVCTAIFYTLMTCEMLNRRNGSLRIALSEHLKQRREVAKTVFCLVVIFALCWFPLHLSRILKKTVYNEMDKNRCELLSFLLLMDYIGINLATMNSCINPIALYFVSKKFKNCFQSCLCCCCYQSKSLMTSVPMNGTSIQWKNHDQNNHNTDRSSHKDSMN
Sequence of CYP2C19 (P33261 whole entry): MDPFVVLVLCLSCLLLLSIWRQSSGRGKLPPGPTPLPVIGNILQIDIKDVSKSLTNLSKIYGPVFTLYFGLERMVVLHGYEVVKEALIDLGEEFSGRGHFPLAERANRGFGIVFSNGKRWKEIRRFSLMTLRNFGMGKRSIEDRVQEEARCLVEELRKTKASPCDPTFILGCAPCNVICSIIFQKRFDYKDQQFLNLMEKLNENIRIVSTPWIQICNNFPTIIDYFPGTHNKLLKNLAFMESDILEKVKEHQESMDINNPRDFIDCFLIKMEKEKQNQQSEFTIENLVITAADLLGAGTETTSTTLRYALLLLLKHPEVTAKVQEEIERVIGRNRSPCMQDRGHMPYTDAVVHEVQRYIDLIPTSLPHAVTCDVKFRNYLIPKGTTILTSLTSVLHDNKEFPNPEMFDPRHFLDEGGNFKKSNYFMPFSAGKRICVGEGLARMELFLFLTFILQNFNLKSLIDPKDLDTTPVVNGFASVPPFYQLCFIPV
Sequence of AT1 (P30556 whole entry): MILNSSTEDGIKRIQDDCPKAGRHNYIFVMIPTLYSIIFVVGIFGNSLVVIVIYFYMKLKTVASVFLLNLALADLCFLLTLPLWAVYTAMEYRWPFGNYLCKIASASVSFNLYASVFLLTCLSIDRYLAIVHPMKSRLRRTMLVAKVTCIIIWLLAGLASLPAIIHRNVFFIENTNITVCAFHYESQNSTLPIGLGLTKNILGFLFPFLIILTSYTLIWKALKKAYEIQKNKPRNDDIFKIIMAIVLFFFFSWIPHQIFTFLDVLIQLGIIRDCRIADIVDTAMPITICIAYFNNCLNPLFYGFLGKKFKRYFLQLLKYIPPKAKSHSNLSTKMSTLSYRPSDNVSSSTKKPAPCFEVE
Sequence of CYP3A4 (P08684 whole entry): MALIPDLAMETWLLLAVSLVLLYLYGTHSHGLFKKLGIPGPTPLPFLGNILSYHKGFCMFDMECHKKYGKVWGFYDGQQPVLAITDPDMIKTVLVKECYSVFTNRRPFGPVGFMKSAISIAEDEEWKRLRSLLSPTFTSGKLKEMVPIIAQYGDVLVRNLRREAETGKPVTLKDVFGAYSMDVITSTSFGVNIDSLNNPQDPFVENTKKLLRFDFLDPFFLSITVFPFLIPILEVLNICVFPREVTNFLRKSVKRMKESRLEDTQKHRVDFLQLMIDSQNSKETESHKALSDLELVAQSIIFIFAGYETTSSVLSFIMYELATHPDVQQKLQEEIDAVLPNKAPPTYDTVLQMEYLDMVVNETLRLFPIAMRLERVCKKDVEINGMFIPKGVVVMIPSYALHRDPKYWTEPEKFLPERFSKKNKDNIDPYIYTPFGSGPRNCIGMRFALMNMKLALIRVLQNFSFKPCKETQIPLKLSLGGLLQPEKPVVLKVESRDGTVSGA
Sequence of CYP2C8 (P10632 whole entry): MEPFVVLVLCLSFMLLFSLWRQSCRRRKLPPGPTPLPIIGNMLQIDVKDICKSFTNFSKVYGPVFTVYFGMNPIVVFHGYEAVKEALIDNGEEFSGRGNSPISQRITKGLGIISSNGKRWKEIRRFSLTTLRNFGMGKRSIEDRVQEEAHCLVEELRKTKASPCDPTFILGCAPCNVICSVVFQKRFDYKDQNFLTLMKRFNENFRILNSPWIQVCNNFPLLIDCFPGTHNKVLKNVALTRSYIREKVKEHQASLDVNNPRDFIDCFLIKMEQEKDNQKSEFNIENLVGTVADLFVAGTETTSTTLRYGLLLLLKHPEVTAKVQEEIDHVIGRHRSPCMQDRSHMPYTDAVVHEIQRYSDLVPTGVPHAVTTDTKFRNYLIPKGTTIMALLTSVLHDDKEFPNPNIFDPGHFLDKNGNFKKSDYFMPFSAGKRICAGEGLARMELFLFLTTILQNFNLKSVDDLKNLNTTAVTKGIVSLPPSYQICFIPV
Sequence of CYP2C9 (P11712 whole entry): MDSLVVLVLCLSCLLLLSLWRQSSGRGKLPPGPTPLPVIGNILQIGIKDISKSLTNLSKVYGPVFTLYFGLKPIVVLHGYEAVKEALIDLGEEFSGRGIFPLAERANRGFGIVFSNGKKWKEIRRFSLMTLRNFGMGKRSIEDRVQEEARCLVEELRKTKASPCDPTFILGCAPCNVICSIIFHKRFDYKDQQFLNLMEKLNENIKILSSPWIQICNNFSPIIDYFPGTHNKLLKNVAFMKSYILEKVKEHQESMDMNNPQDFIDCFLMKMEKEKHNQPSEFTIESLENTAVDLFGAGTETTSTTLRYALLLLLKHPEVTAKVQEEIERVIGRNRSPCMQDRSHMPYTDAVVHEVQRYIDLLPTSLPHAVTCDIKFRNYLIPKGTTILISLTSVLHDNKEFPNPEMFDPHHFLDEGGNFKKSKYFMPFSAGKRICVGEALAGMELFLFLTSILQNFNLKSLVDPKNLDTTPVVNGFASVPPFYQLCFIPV
Sequence of CYP2D6 (P10635 whole entry): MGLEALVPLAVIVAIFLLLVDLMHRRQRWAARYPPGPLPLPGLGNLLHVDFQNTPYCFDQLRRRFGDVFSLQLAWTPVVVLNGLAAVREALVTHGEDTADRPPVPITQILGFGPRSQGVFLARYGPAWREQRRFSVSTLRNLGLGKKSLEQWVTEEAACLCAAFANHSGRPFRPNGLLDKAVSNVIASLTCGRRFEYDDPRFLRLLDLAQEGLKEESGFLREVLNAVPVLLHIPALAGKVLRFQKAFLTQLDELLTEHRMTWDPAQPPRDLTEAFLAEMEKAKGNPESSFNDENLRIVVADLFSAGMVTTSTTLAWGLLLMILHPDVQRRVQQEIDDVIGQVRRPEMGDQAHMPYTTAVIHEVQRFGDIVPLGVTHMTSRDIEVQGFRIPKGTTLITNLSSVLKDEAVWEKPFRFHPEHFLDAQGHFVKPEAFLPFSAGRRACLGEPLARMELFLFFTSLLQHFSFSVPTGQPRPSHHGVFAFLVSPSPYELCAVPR

Structure (SMILES) | Solubility FaSSGF (pH1.6) ([1]; FaSSGF (pH1.6)) | Solubility FaSSIF (pH6.5) ([1]; FaSSIF (pH6.5)) | Solubility FeSSIF (pH5.0) ([1]; FeSSIF (pH5.0)) | Solubility pH7.4 ([1]; pH7.4) | IC50 (AT1; [2]) | IC50 (AT1; read-out: IC50 against AT1) | IC50 (ETa; [3]) | IC50 (ETa; read-out: IC50 against ETa) | risk of inhibiting CYP2D6 activity (conclusion in words) (CYP2D6; conclusion to Table 4) | IC50 (CYP2D6; [4]) | risk of inhibiting CYP2C9 activity (conclusion in words) (CYP2C9; conclusion to Table 4) | IC50 (CYP2C9; [5]) | risk of inhibiting CYP2C8 activity (conclusion in words) (CYP2C8; conclusion to Table 4) | IC50 (CYP2C8; [6]) | risk of inhibiting CYP1A2 activity (conclusion in words) (CYP1A2; conclusion to Table 4) | IC50 (CYP1A2; [7]) | risk of inhibiting CYP3A4 activity (conclusion in words) (CYP3A4; conclusion to Table 4) | IC50 (CYP3A4; [8]) | risk of inhibiting CYP2C19 activity (conclusion in words) (CYP2C19; conclusion to Table 4) | IC50 (CYP2C19; [9]) | further results
CCCCC1=N[C@@]2(CC3C[C@H]3C2)C(=O)N1Cc1ccc(-c2ccccc2S(=O)(=O)Nc2noc(C)c2C)c(COCC)c1 (stereo partly shown) [Example 3] | >1 mg/mL | 0.19 mg/mL | 0.06 mg/mL | 0.82 mg/mL | 1 to 10 nM | 1.97 nM | 10 to 100 nM | 10.5 nM | – | – | – | – | – | – | – | – | – | – | – | – | risk of inhibiting CYP2D6 activity (conclusion in words) (CYP2D6): no risk of inhibiting; IC50 (CYP2D6): > 10000 nM; risk of inhibiting CYP2C9 activity (conclusion in words) (CYP2C9): no risk of inhibiting; IC50 (CYP2C9): > 10000 nM; risk of inhibiting CYP2C8 activity (conclusion in words) (CYP2C8): no risk of inhibiting; IC50 (CYP2C8): > 10000 nM; risk of inhibiting CYP1A2 activity (conclusion in words) (CYP1A2): no risk of inhibiting; IC50 (CYP1A2): > 10000 nM; risk of inhibiting CYP3A4 activity (conclusion in words) (CYP3A4): had an inhibitory effect; IC50 (CYP3A4): 1000 to 10000 nM; risk of inhibiting CYP2C19 activity (conclusion in words) (CYP2C19): no risk of inhibiting; IC50 (CYP2C19): > 10000 nM
CCCCC1=N[C@@]2(CC3C[C@H]3C2)C(=O)N1Cc1ccc(-c2ccccc2S(=O)(=O)Nc2noc(C)c2Cl)c(COCC)c1 (stereo partly shown) [Example 7] | 0.24 mg/mL | 0.87 mg/mL | 0.08 mg/mL | 0.84 mg/mL | 1 to 10 nM | 3.55 nM | 10 to 100 nM | 24.3 nM | no risk of inhibiting | > 10000 nM | no risk of inhibiting | > 10000 nM | no risk of inhibiting | > 10000 nM | no risk of inhibiting | > 10000 nM | no risk of inhibiting | > 10000 nM | no risk of inhibiting | > 10000 nM | –
CCCCC1=NC2(CCCC2)C(=O)N1Cc1ccc(-c2ccccc2S(=O)(=O)Nc2noc(C)c2C)c(COCC)c1 [Sparsentan, reference compound] | – | – | – | – | – | 9.79 nM | – | 80.8 nM | no risk of inhibiting | > 10000 nM | no risk of inhibiting | > 10000 nM | had an inhibitory effect | 1000 to 10000 nM | no risk of inhibiting | > 10000 nM | had an inhibitory effect | 1000 to 10000 nM | no risk of inhibiting | > 10000 nM | solubility ([1]; aqueous medium at pH 7.4 (buffer not named), pH 7.4, aqueous buffer, pH7.4, read-out: Solubility pH7.4): 210 µg/mL (≈ 354 µM); solubility ([1]; pH 1.6, fassgf or other biorelevant, FaSSGF (pH1.6), read-out: Solubility FaSSGF (pH1.6)): 130 µg/mL (≈ 219 µM); solubility ([1]; pH 5, FeSSIF (pH5.0), read-out: Solubility FeSSIF (pH5.0)): 20 µg/mL (≈ 33.7 µM); solubility ([1]; pH 6.5, FaSSIF (pH6.5), read-out: Solubility FaSSIF (pH6.5)): 80 µg/mL (≈ 135 µM)
